Assay results as given in patent US20230000813A1, “COMPOUND FOR THE TREATMENT OF BOVINE OR SWINE RESPIRATORY DISEASE” (Intervet Inc., priority 2016, published 2023).
In brackets after ≈: the same amount, converted by molar mass. Several values for one entry are separate records, joined by “and”; a condition that tells them apart may be missing. Equal entries are not always repeated. Where two headings read alike, the source gives them in different places.

Legend:
[1] = tested on: Mannheimia haemolytica MH 10720 (154, BRD field isolate); experiment: MIC, broth-microdilution (CLSI VET01-A4); assay type: cell-based
Outline: (§1)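 Read-out is visual: the MIC is the lowest compound concentration at which no turbidity is seen by eye. Trays carried a doubling dilution series, with interpretation following CLSI VET01-S3.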

[2] = tested on: Mannheimia haemolytica MH 12587 (1071, BRD field isolate, macrolide-resistance: erm+, E+); experiment: MIC, broth-microdilution (CLSI VET01-A4); assay type: cell-based
Outline: as §1

[3] = tested on: Mannheimia haemolytica MH 6357 (M7/2, reference strain, cattle infection strain); experiment: MIC, broth-microdilution (CLSI VET01-A4); assay type: cell-based
Outline: as §1

[4] = tested on: Mannheimia haemolytica MH 6374 (ATCC 33396, reference strain); experiment: MIC, broth-microdilution (CLSI VET01-A4); assay type: cell-based
Outline: as §1

[5] = tested on: Pasteurella multocida PM 10775 (080130003051, BRD field isolate); experiment: MIC, broth-microdilution (CLSI VET01-A4); assay type: cell-based
Outline: as §1

[6] = tested on: Pasteurella multocida PM 12080 (IV102277-0093, BRD field isolate); experiment: MIC, broth-microdilution (CLSI VET01-A4); assay type: cell-based
Outline: as §1

[7] = tested on: Pasteurella multocida PM 6267 (P 2225 (L386), reference strain, mouse infection strain); experiment: MIC, broth-microdilution (CLSI VET01-A4); assay type: cell-based
Outline: as §1

[8] = tested on: Pasteurella multocida PM 6391 (ATCC 43137, reference strain); experiment: MIC, broth-microdilution (CLSI VET01-A4); assay type: cell-based
Outline: as §1

[9] = Plasma and tissue concentrations in infected calves (Example 10); assay type: in vivo, cattle calves; details: individual animals and mean; for Concentration, Plasma 0 h: predose
[10] = SC single 5 mg/kg (35% Cavitron), listed as C. 239, 5 mg/kg
[11] = SC single 10 mg/kg (C 231 in 10% Poloxamer 188; C 329 in 35% Cavitron), 10 mg/kg

CC(C)(N)C(NC(=O)c1ccc(C#Cc2ccc(CNC3CC3)cc2)cc1)C(=O)NO (stereo not shown) [C. 329]
MIC ([1]; Mannheimia haemolytica MH 10720, read-out: MIC MH 10720): 0.4 µM
MIC ([1]; strain MH 10720): 0.5 µg/mL
MIC MH 12587 ([2]; Mannheimia haemolytica MH 12587, macrolide-resistant): 1.6 µM (≈ 0.673 µg/mL)
MIC ([2]; strain MH 12587, macrolide-resistant): 0.5 µg/mL (≈ 1.19 µM)
MIC ([3]; Mannheimia haemolytica MH 6357, read-out: MIC MH 6357): 1.6 µM
MIC ([3]; strain MH 6357): 0.5 µg/mL
MIC ([4]; Mannheimia haemolytica MH 6374, read-out: MIC MH 6374): 0.8 µM
MIC ([4]; strain MH 6374): 0.25 µg/mL
MIC PM 10775 ([5]; Pasteurella multocida PM 10775): <=0.1 μM
MIC ([5]; strain PM 10775): ≤0.016 µg/mL
MIC PM 12080 ([6]; Pasteurella multocida PM 12080): <=0.1 μM
MIC ([6]; strain PM 12080): 0.032 µg/mL (≈ 0.0761 µM)
MIC PM 6267 ([7]; Pasteurella multocida PM 6267): <=0.1 μM
MIC ([7]; strain PM 6267): ≤0.016 µg/mL
MIC PM 6391 ([8]; Pasteurella multocida PM 6391): <=0.1 μM
MIC ([8]; strain PM 6391): 0.063 µg/mL (≈ 0.15 µM)
Concentration, Plasma 0.5 h [9, 10]: 1140 ng/mL and 830 ng/mL and 945 ng/mL
Concentration, Plasma 2 h [9, 10]: 327 ng/mL and 326 ng/mL and 221 ng/mL
Concentration, Plasma 4 h [9, 10]: 146 ng/mL and 210 ng/mL and 130 ng/mL
Concentration, Plasma 6 h [9, 10]: 110 ng/mL and 156 ng/mL and 78.7 ng/mL
Concentration, Plasma 24 h [9, 10]: 32.2 ng/mL and 35.1 ng/mL and 22.8 ng/mL
Concentration, Plasma 48 h [9, 10]: 16.1 ng/mL and 18.2 ng/mL and 12.8 ng/mL
Concentration, Tissue (48 h) ELF [9, 10]: 91.8 ng/mL and 214 ng/mL and 324 ng/mL
Concentration, Tissue (48 h) Kidney [9, 10]: 8890 ng/mL and 3990 ng/mL and 4940 ng/mL
Concentration, Tissue (48 h) Liver [9, 10]: 2060 ng/mL and 1550 ng/mL and 1740 ng/mL
Concentration, Tissue (48 h) Lung [9, 10]: 1560 ng/mL and 1320 ng/mL and 1360 ng/mL
Concentration, Tissue (48 h) Muscle [9, 10]: 53.3 ng/mL and 45.7 ng/mL and 54.4 ng/mL
Concentration, Plasma 0.5 h [9, 11]: 1160 ng/mL and 1610 ng/mL and 1400 ng/mL
Concentration, Plasma 2 h [9, 11]: 476 ng/mL and 439 ng/mL and 550 ng/mL
Concentration, Plasma 4 h [9, 11]: 310 ng/mL and 267 ng/mL and 282 ng/mL
Concentration, Plasma 6 h [9, 11]: 210 ng/mL and 172 ng/mL and 174 ng/mL
Concentration, Plasma 24 h [9, 11]: 69.1 ng/mL and 42.9 ng/mL and 57.5 ng/mL
Concentration, Plasma 48 h [9, 11]: 49.3 ng/mL and 38.5 ng/mL and 32.4 ng/mL
Concentration, Tissue (48 h) ELF [9, 11]: 1090 ng/mL and 372 ng/mL and 250 ng/mL
Concentration, Tissue (48 h) Kidney [9, 11]: 6570 ng/mL and 20800 ng/mL and 4620 ng/mL
Concentration, Tissue (48 h) Liver [9, 11]: 3930 ng/mL and 3650 ng/mL and 2730 ng/mL
Concentration, Tissue (48 h) Lung [9, 11]: 2780 ng/mL and 3370 ng/mL and 2790 ng/mL
Concentration, Tissue (48 h) Muscle [9, 11]: 75.3 ng/mL and 68.5 ng/mL and 85.9 ng/mL
Concentration, Plasma 0 h ([9]; SC single 5 mg/kg (35% Cavitron)): BLQ
Concentration, Plasma 0 h ([9]; SC single 10 mg/kg (C 231 in 10% Poloxamer 188; C 329 in 35% Cavitron)): BLQ
